{"source": "patent US20240287463A1", "about": "“INDUCIBLE TISSUE CONSTRUCTS AND USES THEREOF” (Massachusetts Institute of Technology, priority 2020, published 2024)", "format_in_all_cases": "cell-based, human", "key": {"iCasp9-HDFs [1]": {"tested_on": "iCasp9-HDFs", "test": "apoptosis of 2D monolayer fibroblasts (cellular ATP, cell density)", "protocol": "To be able to remove fibroblasts on demand from the developing co-culture, the synthetically engineered, inducibly activated caspase-9 (iCasp9) outlined in the examples above was used. Using this inducible transgene, iCasp9-HDFs were established and characterized for effectiveness. iCasp9-HDFs were seeded on tissue culture plastic, and allowed to form a confluent monolayer before adding different concentrations of CID."}, "iCasp9-HDFs [2]": {"tested_on": "iCasp9-HDFs", "test": "live imaging of fibroblast removal in the 3D microfluidic co-culture device", "details": "10 nM CID after 7 days of co-culture", "protocol": "More specifically, the molds for the 2-channel microfluidic devices were constructed using stereolithography (Proto Labs). Polydimethylsiloxane (PDMS) was cured at a standard mixing ratio overnight at 60° C. in the mold, and individual devices were cut and plasma-bonded to glass slides. To enhance ECM bonding to PDMS, the surface inside the tissue chamber of the devices was functionalized with 0.01% poly-L-lysine and 1% glutaraldehyde following plasma-activation and washed overnight in DI water. On the day of seeding, devices were soaked in 70% ethanol (EtOH) and dried. Acupuncture needles (300 μm diameter) (Hwato) were blocked in 0.1% (w/v) bovine serum albumin (BSA) (Sigma) in phosphate buffer saline (PBS) for 45 minutes and inserted through the two needle guides. Devices with needles were UV-sterilized for 15 minutes. Once the needles were inserted, a fibrinogen solution containing human umbilical vein endothelial cells (HUVECs) and growth-arrested human dermal fibroblasts (HDFs) were added into the tissue chamber with thrombin. To prepare the cells for seeding, HDFs or iCasp-9 HDFs were growth-arrested with 10 μg/mL mitomycin in FGM-2 for 2.5 hours and thoroughly washed 5 times in FBM. Both HUVECs and HDFs were lifted from culture plates using TrypLE Express (Gibco), centrifuged at 200 g for 4 minutes, and resuspended to a concentration of 20 million cells/mL in EGM-2. […]"}, "HUVECs [3]": {"tested_on": "HUVECs", "test": "vascular network in HUVEC/iCasp9-HDF microfluidic devices after fibroblast removal (dextran perfusion)", "protocol": "More specifically, the molds for the 2-channel microfluidic devices were constructed using stereolithography (Proto Labs). Polydimethylsiloxane (PDMS) was cured at a standard mixing ratio overnight at 60° C. in the mold, and individual devices were cut and plasma-bonded to glass slides. To enhance ECM bonding to PDMS, the surface inside the tissue chamber of the devices was functionalized with 0.01% poly-L-lysine and 1% glutaraldehyde following plasma-activation and washed overnight in DI water. On the day of seeding, devices were soaked in 70% ethanol (EtOH) and dried. Acupuncture needles (300 μm diameter) (Hwato) were blocked in 0.1% (w/v) bovine serum albumin (BSA) (Sigma) in phosphate buffer saline (PBS) for 45 minutes and inserted through the two needle guides. Devices with needles were UV-sterilized for 15 minutes. Once the needles were inserted, a fibrinogen solution containing human umbilical vein endothelial cells (HUVECs) and growth-arrested human dermal fibroblasts (HDFs) were added into the tissue chamber with thrombin. To prepare the cells for seeding, HDFs or iCasp-9 HDFs were growth-arrested with 10 μg/mL mitomycin in FGM-2 for 2.5 hours and thoroughly washed 5 times in FBM. Both HUVECs and HDFs were lifted from culture plates using TrypLE Express (Gibco), centrifuged at 200 g for 4 minutes, and resuspended to a concentration of 20 million cells/mL in EGM-2. A solution of HUVECs (3 million cells/mL), HDFs or iCasp-9 HDFs (0, 1 million, 3 million, or 6 million cells/mL), fibrinogen (2.5 mg/mL), thrombin (1 U/mL) in EGM-2 was prepared for the bulk hydrogel region of each device. After the addition of thrombin, the solution was quickly injected into the tissue chamber, and the devices were repeatedly rotated while the solution crosslinked. Appropriate media was added to each well of the device, and the devices were placed in the incubator (37° C., 5% CO2). After 15 minutes, the needles were carefully removed from the devices to create 300 μm hollow channels between the wells. Each channel of the device was seeded with additional HUVECs at 2 million cells/ml for at least 5 minutes on each side (top and bottom) in the incubator. Each device received 200 μl of appropriate media daily and cultured on the rocker inside the incubator. Once the fibrinogen polymerized into fibrin, the needles were removed to create two hollow, microfluidic channels. These channels were then seeded with additional HUVECs to line the walls in a monolayer.\nVessel networks were analyzed by fixing all devices with 4% PFA for 30 minutes on a rocker and washing with PBS overnight at 4° C. The devices were then blocked in 3% BSA overnight at 4° C. Lectin (UEA DyLight 649, Vector Labs) was diluted in the blocking solution at 1:100 dilution and added to the devices for another 4° C. overnight incubation. Devices were then washed overnight with PBS at 4° C. and kept in PBS with 0.02% (w/v) sodium azide at 4° C. until imaging. Before imaging, a solution of 500 kDa fluorescein isothiocyanate (FITC)- or tetramethylrhodamine isothiocyanate (TRITC)-conjugated dextran (0.15 mg/ml) was added to one of the microfluidic channels to generate gravity-driven hydrostatic pressure between the two channels of the device. All device images were then captured by a Leica SP8 confocal microscope (Leica, Wetzlar, Germany) using either a Leica 10×/0.30NA W U—V-I WD-3.60 Water or 25×/0.95NA W VISIR WD-2.50 Water objective and Leica LAS X imaging software. […]"}, "HUVECs [4]": {"tested_on": "HUVECs", "test": "vascular network in HUVEC/iCasp9-HLF microfluidic devices after fibroblast removal", "details": "iCasp9-HLFs removed after only 3 days of co-culture"}, "HUVECs [5]": {"tested_on": "HUVECs", "test": "vascular perfusion in tri-culture microfluidic devices", "details": "50 nM CID after 5 days of tri-culture", "from_the_text": "Given that fibroblasts are only transiently required for supporting the formation of a functional vasculature, it was investigated whether CAMEO could be used in the vascularization of tissue constructs with organ-specific parenchymal cells without negatively affecting the function of the parenchymal cells. To investigate this, a tri-culture system of HUVECs, iCasp9-HDFs, and primary human hepatocytes was employed in the microfluidic device. Using the methods described in Example 5, a solution of HUVECs (3 million cells/mL), iCasp-9 HDFs (total of 6 million cells/mL), hepatic aggregates (0.36 million aggregates/mL with about 150 hepatocytes per aggregate), fibrinogen (2.5 mg/mL), thrombin (1 U/mL) was made in a 1:1 mixed media of EGM-2 and hepatocyte maintenance media. After 5 days of tri-culture, the devices were treated with 50 nM CID to remove the iCasp9-HDFs, or with vehicle control. All samples were fixed at day 7 to evaluate vascular perfusion (FIG. 8A). […] To evaluate whether the hepatocytes remained functional after CID treatment, levels of albumin and urea, markers for hepatic protein synthesis function and nitrogen metabolism, respectively, were measured in the media."}}, "data": [{"smiles": "CC[C@H](C(=O)N1CCCC[C@H]1C(=O)O[C@H](CCc1ccc(OC)c(OC)c1)c1cccc(OCC(=O)NCC(CNC(=O)COc2cccc([C@@H](CCc3ccc(OC)c(OC)c3)OC(=O)[C@@H]3CCCCN3C(=O)[C@@H](CC)c3cc(OC)c(OC)c(OC)c3)c2)CN(C)C)c1)c1cc(OC)c(OC)c(OC)c1", "note": "[CID, AP20187]", "values": [{"measurement": "time within which cellular ATP levels dropped precipitously", "setting": "iCasp9-HDFs [1]; 5 nM CID", "value": "2 to 4", "unit": "h"}, {"measurement": "reduction of iCasp9-HDFs in culture compared to vehicle control", "setting": "iCasp9-HDFs [1]; 10 nM CID, overnight", "value": "~96", "unit": "%"}, {"measurement": "rapidity of ATP loss", "setting": "iCasp9-HDFs [1]; 5, 50, 500 nM CID", "value": "increased with increasing CID concentration"}, {"measurement": "time by which most of the fibroblast population was removed", "setting": "iCasp9-HDFs [2]", "value": "≤ 10", "unit": "h"}, {"measurement": "time to rapid rounding of iCasp9-HDFs", "setting": "iCasp9-HDFs [2]", "value": "≤ 5", "unit": "h"}, {"measurement": "acute effects on HUVECs / noticeable deterioration of the vascular structure", "setting": "HUVECs [3]; 10 nM CID after 7 days of co-culture", "value": "not observed"}, {"measurement": "dextran transport of endothelial network at day 7", "setting": "HUVECs [3]; 50 nM CID at day 0", "value": "none of these structures could transport dextran"}, {"measurement": "perfusion of endothelial network at day 7", "setting": "HUVECs [3]; 50 nM CID at day 1", "value": "little to no perfusion"}, {"measurement": "endothelial network at day 7", "setting": "HUVECs [3]; 50 nM CID at day 3 or day 5", "value": "highly interconnected and perfusable endothelial networks"}, {"measurement": "average diameter of the perfused vessels versus control", "setting": "HUVECs [3]; all conditions except day 0 deletion", "value": "comparable"}, {"measurement": "self-assembly of HUVECs at day 7", "setting": "HUVECs [4]", "value": "able to self-assemble into perfusable vasculature"}, {"measurement": "vascular perfusion at day 7", "setting": "HUVECs [5]", "value": "formed perfusable vasculature"}]}]}
